Entries after “also recorded” stand apart in the source; their conditions may differ. Like-named read-outs stand apart in the source and are kept apart here. Starred links: 1 amine or outer side, 2 acyl side, 3 side chain; linkers in the order of their positions; H or OH if unused. Positions of bridges follow the written chain, without caps; N, C: chain ends. Non-standard residues stand in square brackets, D forms with d. Residues, ends and D or L forms follow the SMILES beside them. Chains are numbered I, II in the order given. Actinocin(9to1) = Cc1c2oc3c(C)ccc(C(=O)[*:1])c3nc-2c(C(=O)[*:2])c(N)c1=O; NMeV = CN[C@H](C(=O)O)C(C)C; Sar = CNCC(=O)O
Legend:
neoplastic lung disease = tested on: neoplastic lung disease; parameters: species or system dogs; conditions: dog, in vivo
healthy animals = conditions: in vivo; cited from earlier work
patients = conditions: cited from earlier work
[1] = tested on: gross metastatic disease, micrometastatic hemangiosarcoma or micrometastatic primary lung cancer; parameters: species or system dogs; conditions: dog, in vivo
[2] = dog, in vivo
[3] = share of drug bound in a protein-containing solution; cited from earlier work
mice = conditions: intraperitoneal pretreatment, bleomycin subcutaneous; cited from earlier work
rats = conditions: rat, in vivo
[4] = tested on: 68-2 Adenocarcinoma Cells

O=P1(N(CCCl)CCCl)NCCCO1 (stereo not drawn) [CTX]
Results (neoplastic lung disease): SD lung

O=P1(N(CCCl)CCCl)NCCCO1 (stereo not drawn) [Cyclophosphamide, cyclophosphamide]
Toxic effects to the respiratory tract (healthy animals): only mild inflammation

Cc1c2oc3c(C)ccc(C(=O)N[C@@H]4C(=O)N[C@H](C(C)C)C(=O)N5CCC[C@H]5C(=O)N(C)CC(=O)N(C)[C@@H](C(C)C)C(=O)O[C@@H]4C)c3nc-2c(C(=O)N[C@@H]2C(=O)N[C@H](C(C)C)C(=O)N3CCC[C@H]3C(=O)N(C)CC(=O)N(C)[C@@H](C(C)C)C(=O)O[C@@H]2C)c(N)c1=O [Dactinomycin] (I: T[dV]P[Sar][NMeV] / II: T[dV]P[Sar][NMeV]; ester I:1-I:C, II:1-II:C; linker I:N-II:N via Actinocin(9to1))
Pulmonary toxicity of the IV administered drug (patients): no mention is made of pulmonary toxicity

COc1cccc2c1C(=O)c1c(O)c3c(c(O)c1C2=O)C[C@@](O)(C(=O)CO)C[C@@H]3O[C@H]1C[C@H](N)[C@H](O)[C@H](C)O1 [Doxorubicin, doxorubicin]
Development of lung metastases (neoplastic lung disease): no metastases developed in the lung for four months
Outcome after inhalation treatment [1]: alive with no evidence of disease 81 days later
Disease in the lung ([1]; iv): no evidence of disease in the lung
Clearance from the lung after pulmonary administration [2]: not rapidly cleared from the lung
Damage to the respiratory tract at necropsy [2]: no damage to the respiratory tract was observed
Peak blood levels following inhalation exposure compared with IV [2]: over an order of magnitude lower
Systemic doxorubicin level after about 4 hours, IV relative to pulmonary route [2]: about six times higher
Initial plasma concentration at 2 minutes, IV relative to pulmonary route ([2]; iv, 1 mg/kg): about 1.5 orders of magnitude
Pulmonary toxicity of the IV administered drug (patients): no indication of pulmonary toxicity

COc1cc([C@@H]2c3cc4c(cc3[C@@H](O[C@@H]3O[C@@H]5CO[C@@H](C)O[C@H]5[C@H](O)[C@H]3O)[C@H]3COC(=O)[C@H]23)OCO4)cc(OC)c1O [Etoposide, etoposide]
Pulmonary toxicity of the IV administered drug (patients): no indication of pulmonary toxicity

CC(=O)[C@]1(O)Cc2c(O)c3c(c(O)c2[C@@H](O[C@H]2C[C@H](N)[C@H](O)[C@H](C)O2)C1)C(=O)c1ccccc1C3=O [Idarubicin]
Pulmonary toxicity of the IV administered drug (patients): no mention is made of pulmonary toxicity

CCc1c2c(nc3ccc(OC(=O)N4CCC(N5CCCCC5)CC4)cc13)-c1cc3c(c(=O)n1C2)COC(=O)[C@]3(O)CC [Irinotecan]
Pulmonary toxicity of the IV administered drug (patients): no mention is made of pulmonary toxicity

CO[C@@]12[C@H](COC(N)=O)C3=C(C(=O)C(C)=C(N)C3=O)N1C[C@@H]1N[C@@H]12 [Mutamycin, mitomycin]
Toxic effects to the respiratory tract (healthy animals): the most severe results

CC(=O)O[C@H]1C(=O)[C@@]2(C)[C@H]([C@H](OC(=O)c3ccccc3)[C@]3(O)C[C@H](OC(=O)[C@H](O)[C@@H](NC(=O)c4ccccc4)c4ccccc4)C(C)=C1C3(C)C)[C@]1(OC(C)=O)CO[C@@H]1C[C@@H]2O [Taxol, Paclitaxel]
Results (neoplastic lung disease): SD (4 weeks) lung; also recorded: PD lung, Rx discontinued
Outcome after inhalation treatment [1]: no evidence of disease
Results [1]: SD (PR after; also recorded: PD (PR noted; also recorded: Alive and NED
Pulmonary toxicity of the IV administered drug (patients): pulmonary toxicity is not listed

CC[C@]1(O)C[C@H]2CN(CCc3c([nH]c4ccccc34)[C@@](C(=O)OC)(c3cc4c(cc3OC)N(C=O)[C@H]3[C@@](O)(C(=O)OC)[C@H](OC(C)=O)[C@]5(CC)C=CCN6CC[C@]43[C@@H]65)C2)C1 [Vincristine, vincristine]
Pulmonary toxicity of the IV administered drug (patients): no pulmonary toxicity noted

Nc1ccn([C@@H]2O[C@H](CO)[C@@H](O)[C@@H]2O)c(=O)n1 [cytarabine]
Protein binding affinity [3]: 13%

C[C@@H](CN1CC(=O)NC(=O)C1)N1CC(=O)NC(=O)C1 [dexrazoxane]
Protection against bleomycin-induced pulmonary damage (mice): reduced pulmonary alterations particularly fibrosis

carboplatin
Tolerated dose when given by inhalation (rats): up to 1.9 mg/m^2
Mean Lung Weight ([4]; Group 2, IV 180 mg/m^2, Day 61): 1.37 ± 0.16 g
Mean Percentage of Lung W/Tumors ([4]; Group 2, IV 180 mg/m^2, Day 61): 10 ± 0%
Mean Lung Weight ([4]; Group 3, IV 300 mg/m^2, Day 61): 1.37 ± 0.11 g
Mean Percentage of Lung W/Tumors ([4]; Group 3, IV 300 mg/m^2, Day 61): 10 ± 0%
Lung covered by tumor ([4]; rat, IV 180 or 300 mg/m^2, Day 61): 10%
Average lung and lung tumor weight ([4]; rat, both low (180 mg/m^2) and high (300 mg/m^2) dose, Day 61): 1.37 gram
